In patent US8703713B2, “Combination therapy for pancreatic cancer using an antigenic peptide and chemotherapeutic agent” (Onco Therapy Science, Inc., priority 2007, dated 2014):
Counter-ions that a name gives are not always drawn. Peptide text beside a SMILES is read from it.

What was measured:
[1] = Preliminary test administration of the peptide; format: in vivo, human; details: 10 mg of the peptide subcutaneously before first vaccine administration, monitoring 30 minutes, all cases
Procedure: For the purpose of avoiding unanticipated adverse events, such as anaphylactic shock, 10 mg of the peptide is subcutaneously administered as a preliminary test administration before the first vaccine administration to a site other than the site of the actual administration, and monitoring is carried out for 30 minutes. If a Grade 3 or higher local reaction or systemic adverse event could not be observed, the actual administration was carried out.

[2] = tested on: unresectable pancreatic cancer; details: cited from earlier work
[3] = standard therapy against unresectable pancreatic cancer

SMILES	local adverse event and systemic adverse event [1]	Evident tumor reducing effect (Objective Response) ([2]; gemcitabine alone, data obtained so far)	Disease control rate (SD or higher) ([2]; gemcitabine alone, data obtained so far, listed as GEM alone)	median survival period [2, 3]	one-year survival rate [2, 3]
CC[C@H](C)[C@H](NC(=O)[C@H](CCCNC(=N)N)NC(=O)[C@H](CC(N)=O)NC(=O)CNC(=O)[C@H](CC(=O)O)NC(=O)[C@@H]1CCCN1C(=O)[C@@H](NC(=O)[C@H](Cc1ccccc1)NC(=O)[C@@H](N)CCCNC(=N)N)C(C)C)C(=O)O [VEGFR2-169, RFVPDGNRI] (H-RFVPDGNRI-OH)	not observed in any of the cases				
Nc1ccn([C@@H]2O[C@H](CO)[C@@H](O)C2(F)F)c(=O)n1 [gemcitabine, 2′-deoxy-2′,2′-difluorocytidine monohydrochloride (b-isomer)]		10%	45-48%	5.7 months	18%
